Reference: ChEMBL document CHEMBL1201862, “PubChem BioAssay data set” (2004)
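Exposure lasted 48 hours, with cells grown in 96-well plates and compounds tested at five concentrations. The concentration for 50% growth inhibition is given as GI50.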 Calls of active or inactive are those of the source. Cut-off read from the data, not from the text of the source: active = GI50 up to about 1.1 µM and inactive = higher.

What was measured:
Experiment in all cases: NCI-60 cell line screen, 48 h
[1] = system: TK-10
[2] = system: BT-549
[3] = system: SF-295
[4] = system: SF-268
[5] = system: OVCAR-8
[6] = system: HT-29
[7] = system: M14
[8] = system: SK-OV-3
[9] = system: U-251
[10] = system: CAKI-1
[11] = system: SR
[12] = system: DU-145
[13] = system: MOLT-4
[14] = system: HOP-62
[15] = system: SK-MEL-2
[16] = system: T47D
[17] = system: RXF 393
[18] = system: RPMI-8226
[19] = system: HCT-15
[20] = system: Malme-3M

| Structure (SMILES) | GI50 [1] | GI50 [2] | GI50 [3] | GI50 [4] | GI50 [5] | GI50 [6] | GI50 [7] | GI50 [8] | GI50 [9] | GI50 [10] | GI50 [11] | GI50 [12] | GI50 [13] | GI50 [14] | GI50 [15] | GI50 [16] | GI50 [17] | GI50 [18] | GI50 [19] [µM] | GI50 [20] |
| --- | --- | --- | --- | --- | --- | --- | --- | --- | --- | --- | --- | --- | --- | --- | --- | --- | --- | --- | --- | --- |
| CCC(C(=O)C(=O)C(CC)P1(=O)OC(C)(C)CN1C(C)(C)C)P1(=O)OC(C)(C)CN1C(C)(C)C (configuration not stated) | > 100 µM (inactive) | > 100 µM (inactive) | > 100 µM (inactive) | > 100 µM (inactive) | > 100 µM (inactive) | > 100 µM (inactive) | > 100 µM (inactive) | > 100 µM (inactive) | > 100 µM (inactive) | > 100 µM (inactive) | 60.4 µM (inactive) | > 100 µM (inactive) | 22.2 µM (inactive) | > 100 µM (inactive) | > 100 µM (inactive) | > 100 µM (inactive) | > 100 µM (inactive) | 43.6 µM (inactive) | > 100 |  |
| CC(=O)OCC1OC(n2c(C#N)cc(=O)[nH]c2=O)CC1OC(C)=O (configuration not stated) | > 100 µM (inactive) | > 100 µM (inactive) | > 100 µM (inactive) | > 100 µM (inactive) | > 100 µM (inactive) | > 100 µM (inactive) | > 100 µM (inactive) | > 100 µM (inactive) | > 100 µM (inactive) | > 100 µM (inactive) | > 100 µM (inactive) | > 100 µM (inactive) | > 100 µM (inactive) | > 100 µM (inactive) | > 100 µM (inactive) | > 100 µM (inactive) | > 100 µM (inactive) |  | > 100 | > 100 µM (inactive) |
| Cc1ccc(/N=C2\OP(=O)(Nc3ccc(C)cc3)Oc3ccccc32)cc1 (configuration not stated) | > 100 µM (inactive) | > 100 µM (inactive) | > 100 µM (inactive) | > 100 µM (inactive) | > 100 µM (inactive) | > 100 µM (inactive) | 29.3 µM (inactive) | > 100 µM (inactive) | > 100 µM (inactive) | > 100 µM (inactive) | > 100 µM (inactive) | > 100 µM (inactive) | > 100 µM (inactive) | > 100 µM (inactive) | > 100 µM (inactive) | > 100 µM (inactive) | 81.5 µM (inactive) |  | > 100 | > 100 µM (inactive) |
| Cc1ccc(SC(=O)N2C(=S)N=C(NC3CCCCC3)C23CCCCC3)cc1 | 25.2 µM (inactive) | 57.5 µM (inactive) | > 100 µM (inactive) | > 100 µM (inactive) |  | 57.9 µM (inactive) | > 100 µM (inactive) | > 100 µM (inactive) | 95.3 µM (inactive) | > 100 µM (inactive) | 57.7 µM (inactive) | > 100 µM (inactive) |  | > 100 µM (inactive) | > 100 µM (inactive) | 52.1 µM (inactive) | 70 µM (inactive) | > 100 µM (inactive) | 87.9 | > 100 µM (inactive) |
| Cc1cn2c(/C=C3/C(=O)Nc4cccc(Cl)c43)c(Cl)nc2s1 | 17.9 µM (inactive) | 22.3 µM (inactive) | 36.3 µM (inactive) | 11.3 µM (inactive) | > 100 µM (inactive) | > 100 µM (inactive) | 34.7 µM (inactive) | 27.7 µM (inactive) | 5.26 µM (inactive) | > 100 µM (inactive) | > 100 µM (inactive) | > 100 µM (inactive) | > 100 µM (inactive) | 13.6 µM (inactive) |  | > 100 µM (inactive) | 25.4 µM (inactive) | > 100 µM (inactive) | > 100 | > 100 µM (inactive) |
| Brc1cccc(Nc2nc(-c3cccs3)nc3ccc(Br)cc23)c1 | 24.7 µM (inactive) | 80.9 µM (inactive) | 19.9 µM (inactive) | 26.3 µM (inactive) | 47 µM (inactive) | 17.1 µM (inactive) | 25.5 µM (inactive) | > 100 µM (inactive) | 31.5 µM (inactive) | 23.1 µM (inactive) | 1.48 µM (inactive) | 36.1 µM (inactive) | 26.6 µM (inactive) | 32.1 µM (inactive) | 32.1 µM (inactive) | 9.89 µM (inactive) |  | 44.9 µM (inactive) | 26.5 | 25.4 µM (inactive) |
| O=C(O)[C@@H]1CCCN1 [PROLINE] | > 100 µM (inactive) | > 100 µM (inactive) | > 100 µM (inactive) | > 100 µM (inactive) | > 100 µM (inactive) | > 100 µM (inactive) | > 100 µM (inactive) | > 100 µM (inactive) | > 100 µM (inactive) |  | > 100 µM (inactive) | > 100 µM (inactive) | > 100 µM (inactive) | > 100 µM (inactive) | > 100 µM (inactive) | > 100 µM (inactive) | > 100 µM (inactive) | > 100 µM (inactive) | > 100 | > 100 µM (inactive) |
